Test results: BindingDB's records for doi:10.1021/jm020093q (Brown University, 2002)

Assay: Concentration required for 50% Inhibition of activity against Yersinia Protein-tyrosine phosphatase

SMILES | IC50
O=C(O)C(=O)c1ccc(OCc2ccc(COc3ccc(C(=O)C(=O)O)cc3)cc2)cc1 [{4-[4-(4-Oxalyl-phenoxymethyl)-benzyloxy]-phenyl}-oxo-acetic acid] | 0.7 µM
O=C(O)C(=O)c1ccc(OCc2cccc(COc3ccc(C(=O)C(=O)O)cc3)c2)cc1 [{4-[3-(4-Oxalyl-phenoxymethyl)-benzyloxy]-phenyl}-oxo-acetic acid] | 4.1 µM
O=C(O)C(=O)c1ccc(OCc2cc(COc3ccc(C(=O)C(=O)O)cc3)cc(COc3ccc(C(=O)C(=O)O)cc3)c2)cc1 [{4-[3,5-Bis-(4-oxalyl-phenoxymethyl)-benzyloxy]-phenyl}-oxo-acetic acid] | 1.7 µM
O=C(O)C(=O)c1ccc(O)cc1 [(4-Hydroxy-phenyl)-oxo-acetic acid] | 200 µM
O=C(O)C(=O)c1ccc(OCc2ccccc2COc2ccc(C(=O)C(=O)O)cc2)cc1 [{4-[2-(4-Oxalyl-phenoxymethyl)-benzyloxy]-phenyl}-oxo-acetic acid] | 8.5 µM
